SMILES strings stand for the structures.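 In this assay, cells in 96-well plates receive the compound at five concentrations for 48 hours. Endpoints are linearly interpolated between the surrounding concentrations. GI50: concentration for 50% inhibition of growth. TGI marks complete inhibition of growth.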

Data on 21 molecules can be found in PubChem BioAssay (NCI).

Among the test systems are BT-549 breast; CAKI-1 renal; HCT-15 colon; HL-60(TB) leukemia; KM12 colon; SF-539 CNS; A549 NSCLC.
Experiment in all cases: growth of human tumour cells (NCI), 48 h

On to `CO[C@@H]1O[C@H](C(=O)c2ccccc2)[C@H]2OC(C)(C)O[C@@H]12`, for which the TGI in the test on BT-549 breast, in the test on CAKI-1 renal, with HCT-15 colon, in the test with HL-60(TB) leukemia, with KM12 colon and with SF-539 CNS was more than 100 µM throughout.
For the molecule `COc1cc(NC(C)=O)ccc1C(=O)NN1C(=O)/C(=C/c2ccco2)N=C1c1ccccc1`, the TGI in the test with A549 NSCLC, in the test on BT-549 breast, in the test on CAKI-1 renal, in the test with HCT-15 colon, in the test with HL-60(TB) leukemia and in the test with SF-539 CNS was more than 50 µM each time.
For the molecule `COc1cc2c(cc1OC)-c1cc3ccccc3c(=O)n1CC2`, the TGI in the test with A549 NSCLC is more than 100 µM; in the test with BT-549 breast, more than 100 µM; in the test with CAKI-1 renal, 64.9 µM; with KM12 colon, 53.5 µM; with SF-539 CNS, 41.9 µM.
For `O=c1[nH]c(=O)n(C2CC(O)C(CO)O2)cc1OCc1ccccc1` (centres undefined), the TGI in the test with A549 NSCLC, in the test with BT-549 breast, with CAKI-1 renal, in the test on HCT-15 colon, in the test with HL-60(TB) leukemia and with KM12 colon was more than 100 µM throughout.
Consider `OCc1ccc2c(c1)CC1(Cc3ccc(/C=N/O)cc3C1)C2` (centres undefined), for which the TGI is more than 100 µM with A549 NSCLC; more than 66.4 µM in the test with BT-549 breast; more than 89.7 µM in the test with CAKI-1 renal; more than 45.1 µM in the test on HCT-15 colon; 19.1 µM in the test with KM12 colon; 11.3 µM with SF-539 CNS.
For the molecule `O=c1cc(-c2ccccc2)oc2c(-c3cc(Cl)cc4c(=O)cc(-c5ccccc5)oc34)cc(Cl)cc12`, the TGI is more than 100 µM with A549 NSCLC; more than 100 µM in the test with BT-549 breast; more than 100 µM in the test with HCT-15 colon; more than 100 µM with HL-60(TB) leukemia; more than 100 µM in the test with KM12 colon; 44.4 µM in the test on SF-539 CNS.
On to `CC12CCCC3(CC(=O)C(C)(C)C3C(=O)C1)C2` (centres undefined), for which the TGI with A549 NSCLC, in the test with BT-549 breast, with CAKI-1 renal, in the test with HCT-15 colon, in the test on HL-60(TB) leukemia and with KM12 colon was more than 100 µM throughout.
Regarding `O=C1NCN(c2ccccc2)C12CCN(CCCN1CCN(CCOC(c3ccc(F)cc3)c3ccc(F)cc3)CC1)CC2`, the TGI with A549 NSCLC stood at 4.14 µM; with BT-549 breast, 5.44 µM; with CAKI-1 renal, 5.07 µM; in the test with HCT-15 colon it was 5.3 µM; in the test on KM12 colon it was 6.09 µM; in the test on SF-539 CNS, 3.26 µM.
Regarding `O=C(N/N=C/c1ccc(Br)cc1)N/N=C/c1ccc(Br)cc1`, the TGI in the test on A549 NSCLC was more than 100 µM; in the test on BT-549 breast, 52.9 µM; in the test with CAKI-1 renal, 18 µM; in the test with HCT-15 colon, more than 100 µM; in the test on HL-60(TB) leukemia it was 31.1 µM; in the test on KM12 colon, 78.2 µM.
For `CC(=O)OC1C(COC(=O)c2ccccc2)OC(Nc2ncc(-c3ccc(Br)cc3)s2)C(OC(=O)c2ccccc2)C1OC(=O)c1ccccc1` (centres undefined), the TGI in the test with A549 NSCLC and with BT-549 breast was more than 100 µM each time.
`N#Cc1c(-c2ccccc2)cc(-c2ccc(Cl)cc2)[nH]c1=S`: the TGI in the test on A549 NSCLC, in the test with BT-549 breast, with CAKI-1 renal, with HCT-15 colon, in the test on HL-60(TB) leukemia and in the test with KM12 colon was more than 100 µM each time.
For `Cn1c2ccccc2c(=O)c2c(O)cc3c(c21)C=CC1(CCCCC1)O3`, the TGI in the test with A549 NSCLC, in the test on BT-549 breast, in the test with CAKI-1 renal, in the test with HCT-15 colon, with KM12 colon and in the test on SF-539 CNS was more than 10 µM throughout.
For `CCCCCCCCCc1nn2c(Cc3ccccc3)nnc2s1`, the TGI with A549 NSCLC was 41.5 µM; in the test on BT-549 breast, 33.6 µM; in the test with CAKI-1 renal, more than 100 µM; in the test with HCT-15 colon, 35.4 µM; with KM12 colon, 57.7 µM; with SF-539 CNS it was 33.4 µM.
Take `Cc1c2c(OCC3CCCCO3)nn(C)c(=O)c2c(C)n1-c1ccccc1` (centres undefined): the TGI was found to be 33.7 µM in the test with A549 NSCLC; 38.2 µM with BT-549 breast; 59 µM in the test with CAKI-1 renal; 33.4 µM in the test on HCT-15 colon; 40.4 µM in the test on KM12 colon; 37.2 µM in the test with SF-539 CNS.
For the molecule `O=C(c1ccncc1)C1C(=O)c2ccccc2C1C1(O)c2ccccc2CC1C(O)c1ccncc1` (centres undefined), the TGI in the test on A549 NSCLC, with BT-549 breast, in the test on CAKI-1 renal, with HCT-15 colon, with KM12 colon and in the test on SF-539 CNS was more than 100 µM in each case.
Take `COc1ccc(C2c3cc4c(cc3OC(N3CCOCC3)C2C)OCO4)c(OC)c1OC` (centres undefined): the TGI in the test with A549 NSCLC is more than 100 µM; in the test with CAKI-1 renal it was 9.74 µM; in the test on HCT-15 colon it was more than 100 µM; in the test on KM12 colon it was 30.8 µM; in the test with SF-539 CNS, 27.7 µM.
As for `O=C1CSC2=NC3=C(COC/C3=C\c3ccc(Br)cc3)C(c3ccc(Br)cc3)N12` (centres undefined), the TGI is more than 100 µM in the test on BT-549 breast; more than 100 µM with CAKI-1 renal; more than 100 µM in the test with HCT-15 colon; 36.9 µM in the test on HL-60(TB) leukemia; more than 100 µM in the test with KM12 colon; more than 100 µM in the test on SF-539 CNS.
As to `COc1ccc(-c2cc(-c3ccccc3)[nH]c(=S)c2C#N)cc1`, the TGI in the test on A549 NSCLC was 37.9 µM; in the test with BT-549 breast, more than 100 µM; with CAKI-1 renal, more than 100 µM; with HCT-15 colon, more than 100 µM; with HL-60(TB) leukemia it was more than 100 µM; in the test with KM12 colon it was more than 100 µM.
As to `C1=C\SS/C=C\SS/1`, the TGI was more than 100 µM in the test on A549 NSCLC; more than 100 µM in the test on BT-549 breast; 34 µM in the test on HCT-15 colon; 35.4 µM in the test on HL-60(TB) leukemia; more than 100 µM in the test with KM12 colon.
`CC(=O)c1cnc2oc3ccc(O)cc3c2c1-c1ccccc1`: the TGI with A549 NSCLC was more than 100 µM; with CAKI-1 renal it was more than 100 µM; in the test with HCT-15 colon it was more than 100 µM; in the test with HL-60(TB) leukemia, more than 100 µM; in the test on KM12 colon it was more than 100 µM; in the test on SF-539 CNS, 46.2 µM. For the same molecule, the GI50 in the test with KM12 colon was 40.8 µM.
On to `C[C@H]1SC(c2ccc(Cl)cc2Cl)N(NC(=O)c2ccncc2)C1=O` (some centres undefined), for which the TGI in the test with BT-549 breast, in the test on CAKI-1 renal, in the test with HCT-15 colon, with HL-60(TB) leukemia and in the test on KM12 colon was more than 100 µM each time.
